# Test results taken from patent US8937053B2, “Process for the preparation of prasugrel and several novel crystalline forms of prasugrel hydrochloride” (Sunshine Lake Pharma Co., Ltd., priority 2011, dated 2015).
# Assay: Solubility test (Chinese Pharmacopoeia 2010)
# Assay type: physicochemical
# Conditions: 0.1M HCl, 25±2° C., 300 mg ground powder sample, shaken 30 seconds at 5 minute intervals, 30 minutes total, dissolution judged by eye; for Solubility: hydrochloride
# Protocol: According to the solubility test described in “Chinese Pharmacopoeia 2010”, Topic and Requirement 15, the grinded sample in powder form was added to a certain amount of solvent at 25±2° C. […] The solid was deemed as dissolved when no solid was detected in the mixture by human eyes.
SMILES,Solubility [mg/mL],"solubility at 30 min (25 °C, simulated gastric fluid, thermodynamic from solid) [mg/mL]"
"CC(=O)Oc1cc2c(s1)CCN(C(C(=O)C1CC1)c1ccccc1F)C2.Cl (stereo not shown) [Form H3, prasugrel hydrochloride]",50,–
"CC(=O)Oc1cc2c(s1)CCN(C(C(=O)C1CC1)c1ccccc1F)C2.Cl (stereo not shown) [Form H1, prasugrel hydrochloride]",50,–
"CC(=O)Oc1cc2c(s1)CCN(C(C(=O)C1CC1)c1ccccc1F)C2.Cl (stereo not shown) [Form H2, prasugrel hydrochloride]",50,–
"CC(=O)Oc1cc2c(s1)CCN(C(C(=O)C1CC1)c1ccccc1F)C2.Cl (stereo not shown) [Form B2, prasugrel hydrochloride]",–,40
